# Measured values from article PMC8508710, “Biochemical Characterization of 13-Lipoxygenases of Arabidopsis thaliana” (International Journal of Molecular Sciences, 2021).
# Tests used:
# LOX4 = target: T1, LOX4 (Arabidopsis thaliana, UniProt Q9FNX8); test: Intrinsic fluorescence of LOX4; assay type: binding; design: made in house; host or cells: E. coli Nico21(DE3), pET15b; details: 156 µM chemical; λExc = 280 nm; control 98.1 ± 3.9
# T1 sequence (Q9FNX8 71-926): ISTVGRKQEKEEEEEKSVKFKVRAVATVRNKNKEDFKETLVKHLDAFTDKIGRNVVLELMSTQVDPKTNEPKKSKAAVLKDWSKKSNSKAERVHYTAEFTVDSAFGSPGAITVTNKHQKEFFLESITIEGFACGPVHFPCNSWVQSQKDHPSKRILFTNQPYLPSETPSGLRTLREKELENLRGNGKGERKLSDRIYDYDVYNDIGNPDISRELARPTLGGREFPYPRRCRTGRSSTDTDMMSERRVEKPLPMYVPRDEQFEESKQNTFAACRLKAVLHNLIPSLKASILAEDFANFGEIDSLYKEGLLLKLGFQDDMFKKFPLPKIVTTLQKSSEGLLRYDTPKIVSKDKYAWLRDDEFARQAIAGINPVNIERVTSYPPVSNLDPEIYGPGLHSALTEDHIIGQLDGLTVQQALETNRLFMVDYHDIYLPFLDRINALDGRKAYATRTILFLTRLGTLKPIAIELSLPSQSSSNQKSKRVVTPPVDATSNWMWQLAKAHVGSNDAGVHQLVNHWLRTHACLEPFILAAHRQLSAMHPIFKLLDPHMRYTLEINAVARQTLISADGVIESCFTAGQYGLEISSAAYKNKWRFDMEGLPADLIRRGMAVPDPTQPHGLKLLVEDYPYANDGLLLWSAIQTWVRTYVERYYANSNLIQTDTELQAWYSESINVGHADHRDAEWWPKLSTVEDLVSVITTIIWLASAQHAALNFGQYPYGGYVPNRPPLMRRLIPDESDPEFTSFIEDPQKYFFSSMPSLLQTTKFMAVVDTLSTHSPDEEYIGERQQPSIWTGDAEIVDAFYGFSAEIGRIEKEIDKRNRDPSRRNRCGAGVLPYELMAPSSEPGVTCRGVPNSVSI
# Experimental: (§1) Figure 5 Analysis of the interaction of 12-OPDA and MJ with LOX4. […] LOX4 (0.22 µg/µL) was incubated with compounds at indicated concentrations for 10 min at 30 °C, and residual LOX activity was measured spectrophotometrically by the injection of 3 µL incubation mixture into 123 µL LeA (4.8 µM in 50 mM Tris-HCl, pH 7.2). […] (B) Intrinsic fluorescence of LOX4 incubated with 12-OPDA, MJ and solvent (control). Here, 120 µL LOX4 (0.2 µg/µL) was mixed with 15 µL chemical (1.4 mM in 50 mM K-Pi, pH 8.0) or solvent (control) and analyzed for intrinsic fluorescence emission after excitation at λExc = 280 nm. Mean graphs are shown (n = 4).
# LOX3 = target: T2, LOX3 (Arabidopsis thaliana, UniProt Q9LNR3); test: Intrinsic fluorescence of LOX3; assay type: binding; design: made in house; host or cells: E. coli Nico21(DE3), pET15b; details: as Figure 5B; for Emission maximum: control 330.8±1.6, in nm (unit assumed); for Relative fluorescence intensity at emission maximum: λExc = 280 nm, control 134.5±3.9
# T2 sequence (Q9LNR3 71-919): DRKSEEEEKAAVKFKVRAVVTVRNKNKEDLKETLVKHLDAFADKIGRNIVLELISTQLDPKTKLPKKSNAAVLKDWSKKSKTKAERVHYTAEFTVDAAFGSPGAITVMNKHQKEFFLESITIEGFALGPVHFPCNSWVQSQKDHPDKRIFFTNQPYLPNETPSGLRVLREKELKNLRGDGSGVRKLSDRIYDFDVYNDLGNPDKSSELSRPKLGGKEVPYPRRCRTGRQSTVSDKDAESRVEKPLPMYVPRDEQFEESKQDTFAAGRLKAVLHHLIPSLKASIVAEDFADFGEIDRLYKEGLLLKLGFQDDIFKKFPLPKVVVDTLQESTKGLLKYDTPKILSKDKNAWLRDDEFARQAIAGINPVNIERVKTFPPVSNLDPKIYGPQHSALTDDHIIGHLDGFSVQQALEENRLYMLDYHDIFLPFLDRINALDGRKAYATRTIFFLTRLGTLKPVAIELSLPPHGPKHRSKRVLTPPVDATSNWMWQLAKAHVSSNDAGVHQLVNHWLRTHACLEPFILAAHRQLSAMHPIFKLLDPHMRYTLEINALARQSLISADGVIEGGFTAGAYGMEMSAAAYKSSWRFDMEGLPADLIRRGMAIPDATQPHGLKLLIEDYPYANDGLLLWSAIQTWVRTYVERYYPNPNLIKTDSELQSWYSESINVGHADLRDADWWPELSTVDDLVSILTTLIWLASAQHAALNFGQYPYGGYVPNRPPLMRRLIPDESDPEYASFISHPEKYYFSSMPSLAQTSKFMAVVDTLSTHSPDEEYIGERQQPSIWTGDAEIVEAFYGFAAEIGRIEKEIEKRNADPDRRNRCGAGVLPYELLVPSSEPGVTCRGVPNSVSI
# Experimental: as §1
# Int. J. Mol. Sci. 2021, 22, x FOR PEER REVIEW 11 of 17
# Figure S7. Interaction and activity studies of LOX2, LOX3 and LOX6. (A) LOX2, LOX3 and LOX6 activities in presence of increasing amounts of MJ and 12-OPDA. Analysis was performed as described for IC50 determination of LOX4 (see Figure 5A). 100% activity […]
# (B) Intrinsic fluorescence of LOX2 and LOX3 incubated with 12-OPDA, MJ and solvent control. Analysis was performed as in Figure 5B. […]
structure (smiles),measurement,setting,value
"CCC=CCC1C(=O)C=CC1CCCCCCCC(=O)O (stereo not drawn) [12-OPDA, cis-(+)-12-oxophytodienoic acid]",Relative fluorescence emission at 333 nm,LOX4,86.2 ± 3.9
same,Emission maximum,LOX3,333.2±0.3
same,Relative fluorescence intensity at emission maximum,LOX3,115.2±1.3
"CC/C=C\CC1C(=O)CCC1CC(=O)OC (stereo not drawn) [MJ, methyl jasmonate]",Relative fluorescence emission at 333 nm,LOX4,98.0 ± 2.4
same,Emission maximum,LOX3,331.7±0.8
same,Relative fluorescence intensity at emission maximum,LOX3,126.4±3.0
